Patent publication US20040022744A1, “Method of treating dental caries and remineralizing lesions” (priority 2001, published 2004)

Tests used:
[1] = test system: Streptococcus sobrinus; TH 21; experiment: Ozone on micro-organisms on saliva coated glass beads; format: cell-based; conditions: S. sobrinus on saliva coated glass beads, 10 seconds of ozone
Excerpt: (§1) The aims of these studies were to evaluate the efficiency of ozone on primary root caries and associated micro-organisms (Streptococcus sobrinus; TH 21 Streptococcus mutans; NCTC 10449). In study 1, 40 soft primary root carious lesions (PRCLs) from freshly extracted teeth were used and randomly divided into two groups to test the exposure to ozone for either 10 or 20 seconds. There was a significant (p<0.001) difference (Mean±SE) between the control samples for either 10 seconds (log10 5.91±0.15) or 20 seconds (log10 6.18±0.21) and ozone treated samples for either 10 seconds (log10 3.57±0.37) or 20 seconds (log10 3.77±0.42). In study 2, 40 sterile saliva coated glass beads were put into bijoux bottles with 3 mls of Todd Hewitt broth for control and test groups. S. sobrinus and S. mutans were inoculated and incubated anaerobically overnight. Each glass bead was washed with 2 mls of PBS. Immediately, 10 seconds of ozone was applied to the glass beads in the test groups. Subsequently, each glass bead in the test and control groups was placed in 3 mls of Todd Hewitt broth with six more sterile glass beads and were vortexed for 30 seconds. After decimal dilutions, 100 ml aliquots were spread on blood agar plates supplemented with 5% (V/V) horse blood and placed in an anaerobic chamber at 37° C. for two days. The number of each colony type was counted and calculated. […]

[2] = test system: microflora from primary root carious lesions (PRCL); experiment: Ozone effect on microflora from primary root caries ex-vivo; format: cell-based; conditions: for Mean ± SE of Total cfu (Log10): after 10 seconds of ozone treatment
Excerpt: Primary root carious lesions (PRCL) are a major clinical problem. The aim of this study was to establish if ozone could achieve effective microbial killing in PRCL. An ozone producing generator (Purezone Ltd., Ipswich, U.K.) was used in this ex-vivo study assessing the use of ozone on PRCL. In this study, soft PRCL requiring restoration were used as these are the most severe type of lesion found in humans. 20 freshly extracted teeth with PRCL requiring restoration were used. After plaque removal using a hand held standard fine nylon fiber sterile toothbrush with sterile water as a lubricant to cleanse the surface, each tooth was then isolated using sterile cotton wool rolls and dried using a dry sterile cotton wool roll. […] Each sample was weighed and immediately placed in 1 ml of Fastidious Anaerobe Broth (FAB). To each 1 ml of FAB containing a biopsy o carious or ozone treated carious dentine, sterile glass beads were added. They were vortexed for 30 seconds to facilitate the extraction of any micro-organisms from the carious dentine and disperse any aggregates. After decimal dilution with FAB, […] of these was spread on Fastidious Anaerobe Agar (LabM, Bury, Lancs., U.K.) supplemented with 5% (V/V) horse blood in an anaerobic chamber at 37° C. for four days. The mean±SE number of each colony type was counted and calculated.
The procedure of Example 2 was repeated except that ozonized water was applied to the lesion for 20 seconds.
as §1, with “After decimal dilutions, 100 ml aliquots were spread on blood agar plates supplemented with 5% (V/V) horse blood and placed in an anaerobic chamber at 37° C. for two days.” left out

## O=[O+][O-] [ozone]
[1]
  colony count (log10), Mean ±SE: 1.09±0.36 log10
[2]; 10 seconds of ozone, PRCL ex vivo
  percentage of micro-organisms killed: more than 99%
[2]; soft PRCL of extracted teeth
  Mean ± SE of Total cfu (Log10): 3.57±0.37 Log10
[2]; soft PRCL of extracted teeth, listed as Ozone
  Mean ± SE of Total cfu (Log10): 3.57 ± 0.37 Log10
[2]; after 20 seconds of ozone treatment, soft PRCL of extracted teeth
  Total cfu (log10), mean±SE: 3.77±0.42 log10
